Calls of active or inactive are those of the source. The rule behind the calls is not given here.
Key:
[1] = molecular target: Poly [ADP-ribose] polymerase 1 (Homo sapiens, UniProt P09874); test: Inhibition of human recombinant N-terminal GST-tagged PARP1 (2 to 1014 end residues) incubated for 1 hr by ELISA assay
[2] = molecular target: T1, Protein mono-ADP-ribosyltransferase PARP11 (Homo sapiens, UniProt Q9NR21); test: Inhibition of human recombinant N-terminal GST-tagged / C-terminal His-tagged PARP11 (8 to 338 end residues) expressed in baculovirus infected Sf9 cells expression system incubated for 1 hr by ELISA assay
T1 sequence (Q9NR21 whole entry): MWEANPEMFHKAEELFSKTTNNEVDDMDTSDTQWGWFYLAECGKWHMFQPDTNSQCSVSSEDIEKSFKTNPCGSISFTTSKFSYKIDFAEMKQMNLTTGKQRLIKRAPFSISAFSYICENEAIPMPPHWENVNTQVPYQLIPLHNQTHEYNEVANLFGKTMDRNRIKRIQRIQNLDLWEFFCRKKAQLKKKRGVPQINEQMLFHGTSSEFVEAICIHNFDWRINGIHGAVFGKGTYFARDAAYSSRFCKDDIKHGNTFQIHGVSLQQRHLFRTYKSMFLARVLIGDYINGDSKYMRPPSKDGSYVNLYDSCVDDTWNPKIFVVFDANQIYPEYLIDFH

[3] = molecular target: Protein mono-ADP-ribosyltransferase PARP14 (Homo sapiens, UniProt Q460N5); test: Inhibition of human recombinant N-terminal 6his-tagged / GST-tagged PARP14 (1470 to 1801 end residues) expressed in baculovirus infected Sf9 cells expression system incubated for 1 hr by ELISA assay
[4] = Half life in ICR mouse at 10 mg/kg, po measured upto 24 hrs by LC-MS/MS analysis; format: ADME, organism-based; settings: in vivo
[5] = Tmax in ICR mouse at 1 mg/kg, iv measured upto 24 hrs by LC-MS/MS analysis; format: ADME, organism-based; settings: in vivo
[6] = Tmax in ICR mouse at 10 mg/kg, po measured upto 24 hrs by LC-MS/MS analysis; format: ADME, organism-based; settings: in vivo
[7] = Initial plasma concentration in ICR mouse at 1 mg/kg, iv measured upto 24 hrs by LC-MS/MS analysis; format: ADME, organism-based
[8] = Apparent volume of distribution in ICR mouse at 10 mg/kg, po measured upto 24 hrs by LC-MS/MS analysis; format: ADME, organism-based; settings: in vivo
[9] = Clearance in ICR mouse at 10 mg/kg, po measured upto 24 hrs by LC-MS/MS analysis; format: ADME, organism-based; settings: in vivo
[10] = molecular target: T2, Protein mono-ADP-ribosyltransferase TIPARP (Mus musculus) (UniProt Q8C1B2); test: Inhibition of PARP7 in mouse CT26 cells assessed as increase in IFN-beta levels at 49 to 4000 nmol/L measured after 48 hrs by RT-qPCR analysis; format: cell-based; settings: dose lower […], dose upper 4000.0 nmol/L
T2 sequence (whole entry): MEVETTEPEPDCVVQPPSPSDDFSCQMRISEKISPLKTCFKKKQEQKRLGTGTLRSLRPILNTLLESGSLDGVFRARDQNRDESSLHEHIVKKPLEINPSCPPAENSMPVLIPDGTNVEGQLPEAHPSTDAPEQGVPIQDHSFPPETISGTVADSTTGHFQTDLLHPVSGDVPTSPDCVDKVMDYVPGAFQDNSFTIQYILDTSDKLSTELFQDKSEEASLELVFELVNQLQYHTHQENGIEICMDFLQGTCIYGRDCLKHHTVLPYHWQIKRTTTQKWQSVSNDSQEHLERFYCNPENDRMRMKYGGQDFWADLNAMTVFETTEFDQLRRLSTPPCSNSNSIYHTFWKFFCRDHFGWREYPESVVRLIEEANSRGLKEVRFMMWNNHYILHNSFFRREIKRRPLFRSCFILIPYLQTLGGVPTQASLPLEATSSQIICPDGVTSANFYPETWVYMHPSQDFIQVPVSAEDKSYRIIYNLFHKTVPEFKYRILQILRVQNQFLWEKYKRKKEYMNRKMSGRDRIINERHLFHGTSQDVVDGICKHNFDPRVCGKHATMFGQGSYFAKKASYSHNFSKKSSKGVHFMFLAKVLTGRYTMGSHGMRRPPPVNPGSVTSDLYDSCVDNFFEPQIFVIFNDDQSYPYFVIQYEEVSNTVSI

[11] = molecular target: T2, Protein mono-ADP-ribosyltransferase TIPARP (Mus musculus); test: Inhibition of PARP7 in mouse CT26 cells assessed as increase in STAT1 phosphorylation incubated for 6 hrs in presence of DMXAA by Western blotting analysis; format: cell-based; settings: dose 0.44-4 µM
CT26 [12] = test: Antitumor activity against mouse CT26 cells xenografted in BALB/c mouse assessed as tumor growth inhibition at 25 mg/kg, po bid measured for 14 days; format: functional; settings: CT26, 336 h, time 14 day, read-out: TGI
[13] = Toxicity in BALB/c mouse implanted with mouse CT26 cells assessed as change in body weight at 25 to 100 mg/kg, po measured for 14 days; format: organism-based; settings: in vivo, 336 h, dose 25-100 mg/kg, time 14 day
CT26 [14] = test: Antitumor activity against mouse CT26 cells implanted in BALB/c mouse assessed as tumor cell agglutination at 25 to 100 mg/kg, po bid measured for 14 days by hematoxylin and eosin staining based fluorescence microscopic analysis; format: functional, organism-based; settings: dose 25-100 mg/kg, time 14.0 day
CT26 [15] = test: Antitumor activity against mouse CT26 cells implanted in BALB/c mouse assessed as nuclear chromatin margination at 25 to 100 mg/kg, po bid measured for 14 days by hematoxylin and eosin staining based fluorescence microscopic analysis; format: functional, organism-based; settings: dose 25-100 mg/kg, time 14.0 day
[16] = Toxicity in BALB/c mouse implanted with mouse CT26 cells assessed as spleen damage at 100 mg/kg, po measured for 14 days by hematoxylin and eosin staining based fluorescence microscopic analysis; format: organism-based; settings: in vivo, 336 h, time 14 day
CT26 [17] = test: Antitumor activity against mouse CT26 cells implanted in BALB/c mouse assessed as increase in infiltration of CD4 positive CD8 positive T lymphocytes in tumors at 50 mg/kg, po measured after 14 days by flow cytometry (reference value: 6.67%); format: functional; settings: time 14 day
CT26 [18] = test: Antitumor activity against mouse CT26 cells implanted in immunodeficient BALB/c mouse at 100 mg/kg, po bid measured for 10 days; format: functional, organism-based; settings: time 10.0 day
CT26 [19] = test: cells; settings: Mus musculus, CT26, 144 h

Chain of Poly [ADP-ribose] polymerase 1 (P09874 whole entry): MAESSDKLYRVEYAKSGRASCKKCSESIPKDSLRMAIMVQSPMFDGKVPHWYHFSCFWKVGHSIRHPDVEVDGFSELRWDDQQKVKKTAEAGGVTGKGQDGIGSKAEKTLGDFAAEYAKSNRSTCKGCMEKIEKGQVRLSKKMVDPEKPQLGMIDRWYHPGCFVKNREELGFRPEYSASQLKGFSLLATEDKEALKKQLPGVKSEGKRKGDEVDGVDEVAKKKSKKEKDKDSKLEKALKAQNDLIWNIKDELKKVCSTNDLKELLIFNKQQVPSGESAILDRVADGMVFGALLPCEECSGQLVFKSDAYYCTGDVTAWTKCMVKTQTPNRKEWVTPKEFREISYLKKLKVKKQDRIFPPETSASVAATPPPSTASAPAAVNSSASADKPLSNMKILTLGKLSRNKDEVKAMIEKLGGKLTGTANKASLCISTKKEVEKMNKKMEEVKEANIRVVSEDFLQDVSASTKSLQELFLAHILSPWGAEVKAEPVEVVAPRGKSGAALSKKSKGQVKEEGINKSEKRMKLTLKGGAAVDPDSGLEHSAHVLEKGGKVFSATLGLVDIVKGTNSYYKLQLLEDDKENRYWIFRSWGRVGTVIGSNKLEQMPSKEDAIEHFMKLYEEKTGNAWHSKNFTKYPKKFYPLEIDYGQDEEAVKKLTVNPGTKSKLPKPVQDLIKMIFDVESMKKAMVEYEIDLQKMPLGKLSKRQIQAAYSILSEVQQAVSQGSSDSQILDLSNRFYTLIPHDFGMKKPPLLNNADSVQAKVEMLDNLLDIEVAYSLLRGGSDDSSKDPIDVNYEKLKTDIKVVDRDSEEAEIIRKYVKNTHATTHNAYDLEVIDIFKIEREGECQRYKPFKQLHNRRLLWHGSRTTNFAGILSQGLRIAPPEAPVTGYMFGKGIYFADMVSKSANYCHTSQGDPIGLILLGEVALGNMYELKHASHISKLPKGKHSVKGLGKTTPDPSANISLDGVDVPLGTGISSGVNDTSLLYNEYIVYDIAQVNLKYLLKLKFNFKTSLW
Chain of Protein mono-ADP-ribosyltransferase PARP14 (Q460N5 whole entry): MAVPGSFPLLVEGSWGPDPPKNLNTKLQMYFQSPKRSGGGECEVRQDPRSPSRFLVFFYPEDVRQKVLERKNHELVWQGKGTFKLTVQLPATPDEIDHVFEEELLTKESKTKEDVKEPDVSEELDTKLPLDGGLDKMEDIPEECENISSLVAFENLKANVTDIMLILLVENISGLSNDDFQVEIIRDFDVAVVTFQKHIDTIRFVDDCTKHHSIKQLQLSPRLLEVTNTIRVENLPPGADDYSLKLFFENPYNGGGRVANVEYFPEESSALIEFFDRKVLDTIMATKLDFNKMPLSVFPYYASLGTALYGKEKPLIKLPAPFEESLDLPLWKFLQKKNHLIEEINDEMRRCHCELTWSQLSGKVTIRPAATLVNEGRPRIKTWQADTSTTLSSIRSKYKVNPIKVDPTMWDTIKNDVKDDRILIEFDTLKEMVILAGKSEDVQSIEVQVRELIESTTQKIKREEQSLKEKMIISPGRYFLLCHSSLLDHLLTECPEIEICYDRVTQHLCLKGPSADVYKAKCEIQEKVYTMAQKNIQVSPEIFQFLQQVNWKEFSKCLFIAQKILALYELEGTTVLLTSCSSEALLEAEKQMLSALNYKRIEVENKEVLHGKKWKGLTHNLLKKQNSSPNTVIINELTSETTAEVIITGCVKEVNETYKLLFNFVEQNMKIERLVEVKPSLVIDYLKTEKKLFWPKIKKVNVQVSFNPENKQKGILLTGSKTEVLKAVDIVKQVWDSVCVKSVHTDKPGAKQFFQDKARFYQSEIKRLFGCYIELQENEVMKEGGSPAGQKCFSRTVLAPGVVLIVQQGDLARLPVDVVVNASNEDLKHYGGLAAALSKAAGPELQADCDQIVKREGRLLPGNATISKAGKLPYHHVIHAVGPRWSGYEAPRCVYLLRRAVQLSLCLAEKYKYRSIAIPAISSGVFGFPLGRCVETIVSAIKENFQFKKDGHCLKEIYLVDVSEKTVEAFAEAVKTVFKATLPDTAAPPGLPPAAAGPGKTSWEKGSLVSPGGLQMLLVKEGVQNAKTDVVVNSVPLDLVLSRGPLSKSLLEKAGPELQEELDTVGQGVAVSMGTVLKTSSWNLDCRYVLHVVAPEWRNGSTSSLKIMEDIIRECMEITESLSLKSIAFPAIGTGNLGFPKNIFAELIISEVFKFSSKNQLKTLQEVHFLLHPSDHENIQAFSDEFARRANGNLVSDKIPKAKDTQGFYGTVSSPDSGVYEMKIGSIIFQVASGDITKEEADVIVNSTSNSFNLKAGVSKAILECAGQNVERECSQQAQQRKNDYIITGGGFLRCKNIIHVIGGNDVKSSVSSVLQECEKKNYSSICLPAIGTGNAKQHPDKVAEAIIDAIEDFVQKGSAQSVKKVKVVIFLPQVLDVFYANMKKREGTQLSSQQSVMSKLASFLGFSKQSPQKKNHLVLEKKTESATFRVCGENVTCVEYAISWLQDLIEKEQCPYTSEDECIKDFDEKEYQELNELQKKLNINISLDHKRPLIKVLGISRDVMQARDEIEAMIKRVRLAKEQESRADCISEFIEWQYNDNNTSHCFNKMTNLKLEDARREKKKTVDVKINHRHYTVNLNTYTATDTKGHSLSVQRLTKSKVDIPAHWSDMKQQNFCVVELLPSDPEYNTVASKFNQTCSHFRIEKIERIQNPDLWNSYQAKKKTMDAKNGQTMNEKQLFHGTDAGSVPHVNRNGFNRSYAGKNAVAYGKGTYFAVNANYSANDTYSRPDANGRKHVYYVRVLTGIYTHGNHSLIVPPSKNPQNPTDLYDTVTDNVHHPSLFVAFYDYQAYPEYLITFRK

IC50 [1]: > 5 µM
IC50 [2]: 32.2 µM
IC50 [3]: 2.17 µM
t1/2 [4]: 104 min
Tmax [5]: 4.8 min
Tmax [6]: 34.8 min
C0 at 24 h [7]: 504 ng/mL
Vz [8]: 4.5836 L/kg
CL/F [9]: 30.3 mL/min/kg
inhibition [10]: Active
inhibition [11]: Dose-Dependent Effect
IC50 (CT26 [19]): 12.8 µM
SMILES: C[C@@H](CN1CC(C(=O)N2CCN(c3ncc(C(F)(F)F)cn3)CC2)C1)Nc1cn[nH]c(=O)c1C(F)(F)F
inhibition in vivo at 25 mg/kg (CT26 [12]): 39%
Activity [13]: Non-Toxic
Activity (CT26 [14]): Active
Activity (CT26 [15]): Active
Activity [16]: Non-Toxic
Activity (CT26 [17]): 26.6%
Activity (CT26 [18]): inactive

Reference: ChEMBL document CHEMBL5316291 (J Med Chem, 2023)
